{"source": "patent US9687467B2", "about": "“Diagnosis and treatment of taxane-resistant cancers” (Children's Medical Center Corporation, priority 2011, dated 2017)", "type_in_all_cases": "in vivo, nude mice", "key": {"A549 xenografts": {"tested_on": "A549 xenografts", "test": "A549 xenograft mouse model, paclitaxel treatment", "procedure": "(FIG. 5A) A suspension of A549 cells was injected subcutaneously into the flank of a nude mouse. When the average tumor volume was at least 120 mm^3, vehicle or paclitaxel (15 mg/kg) was administered intraperitoneally every other day. Treatment was continued until tumors reached approximately four times their initial volume. Paclitaxel-refractory, as well as vehicle-treated tumors, were digested with collagenase and cultured in vitro (adapted from Norman E et al. Nature Reviews Drug Discovery 2006; 5: 741-754). (FIG. 5B) Tumor growth was determined as the tumor volume on the day of treatment relative to the tumor volume at the start of treatment and presented as a ratio. Each line represents the growth of an individual tumor (T) in an individual mouse (indicated by a number). Groups of mice are separated into control, paclitaxel-responsive and paclitaxel non-responsive (continuous tumor growth in the presence of paclitaxel) groups. […] (FIG. 5C) Vehicle-treated tumors (hatched bars) or paclitaxel-refractory tumors (black bars) were harvested from mice and used to generate two cell lines per tumor. The indicated cell lines were cultured in vitro and cell viability was assessed 72 h after paclitaxel addition using the MTT assay. Bars represent average LC50±s.e.m. from triplicate experiments.\nNude mice were inoculated with A549 cells. At an average tumor volume of ˜120 mm^3, vehicle control and 10 mg/kg (FIG. 10A) or 12.5 mg/kg (FIG. 10B) paclitaxel was administered i.p. every day. Each curve represents the tumor volume on the day of treatment relative to day 0 per mouse.\nTo further establish the role of miR-135a in paclitaxel response, the A549 xenograft mouse model was adapted from the protocol previously described by Patel et al., 2010. Briefly, nude mice bearing subcutaneous A549 xenografts were injected intraperitoneally with either vehicle or 15 mg/kg paclitaxel until tumors that responded initially began to regrow (FIG. 5A). […] After 120 days of paclitaxel treatment, control and paclitaxel-refractory tumors were harvested. Within two passages in vitro, RNA was harvested for miRNA evaluation and determination of paclitaxel response.\nApproximately 4×10^6 human A549 NSCLC cells were resuspended in 50% Matrigel (BD Biosciences, Bedford, Mass.) and injected subcutaneously into the hind flanks of 8-wk old male athymic (nu/nu) nude mice (Taconic Farms, Inc., Hudson, N.Y.). […] Tumor size was determined by digital caliper measurements (length and width in mm), and tumor volume (mm^3) was estimated using the formula (length×width^2)/2. Effects on tumor growth rate were assessed per mouse by determining the tumor volume on the day of treatment relative to the tumor volume on Day 0. […]"}, "T28.2 xenografts": {"tested_on": "T28.2 xenografts", "test": "Retransplantation xenograft, paclitaxel-sensitive control clone", "protocol": "(§1) FIGS. 6A-6C are a series of graphs showing data that validate the A549 in vivo paclitaxel resistance model. (FIG. 6A) Tumor cell lines established after an initial round of inoculation and treatment with either vehicle (T28.2) or 15 mg/kg paclitaxel (T20.2) were harvested during log-phase growth and reinjected subcutaneously into the flanks of nude mice. When the average tumor volume was ˜120 mm^3, vehicle (open circles or squares) or 15 mg/kg paclitaxel (closed circles or squares) was administered intraperitoneally every other day. Treatment was continued until tumors reached approximately four times their initial volume. Each curve represents the average tumor growth±s.e.m. for 10 mice per group. […] Each bar represents the average tumor growth±s.e.m. for 10 mice per group. NS: not significant, *P<0.05 as determined by Wilcoxon's rank sum test. (FIG. 6C) Tumors were harvested, cultured in vitro and cell viability was assessed using the MTT assay. Values are presented as percentage of cell survival in paclitaxel-treated cells relative to untreated cells. White bars represent LC50s from tumor cell lines established from T28.2 tumors treated with vehicle. Black bars represent LC50s from cell lines established from T20.2 tumors treated with paclitaxel. Shown are the mean±s.e.m. of two independent experiments, each performed in triplicate. *P<0.05 as determined by Wilcoxon's rank sum test. […]"}, "T20.2 xenografts": {"tested_on": "T20.2 xenografts", "test": "Retransplantation xenograft, paclitaxel-resistant clone", "protocol": "as §1"}, "A549 control cells": {"tested_on": "A549 control cells", "test": "Xenograft of A549 control cells, paclitaxel treatment", "details": "paclitaxel three times a week for 3 weeks; P<0.001", "protocol": "(§2) A549 cells stably expressing either non-targeting premiR (A549-control) or premiR-135a (A549-miR-135a) were generated. (FIG. 8A) miR-135a expression level in A549-control and -miR-135a was determined and compared with A549 and A549TR cells using qRT-PCR analysis. *P<0.01. (FIG. 8B) Paclitaxel response of A549-control and A549-premiR-135a cells was determined using the MTT assay. (FIG. 8C) APC protein expression was examined using western blot analysis in A549-control and -premiR-135a cells. (FIG. 8D) A549-control and -premiR-135a cells were inoculated subcutaneously into the flanks of nude mice. Paclitaxel treatment was given three times a week for 3 weeks. The tumor size in each group was measured during the course of treatment and was calculated, relative to the size before treatment initiation. Each curve represents the average tumor growth±s.e.m. for 10 mice per group. **P<0.001 as determined by Wilcoxon's rank sum test.\n(§3) The inventors subsequently investigated the role of miR-135a in paclitaxel sensitivity in vivo. […] As expected, miR-135a […] attenuated paclitaxel-induced cell death (FIG. 8B) and APC protein expression (FIG. 8C) relative to control transfected A549 cells in vitro. […] Paclitaxel treatment was given three times a week for 3 weeks, and tumor size in each group was monitored during the course of treatment. […]"}, "[1]": {"tested_on": "A549 cells overexpressing miR-135a", "test": "Xenograft of A549 cells stably overexpressing miR-135a, paclitaxel treatment", "details": "paclitaxel three times a week for 3 weeks", "protocol": "as §2, §3"}, "[2]": {"test": "Mouse weight during paclitaxel treatment", "details": "15 mg/kg paclitaxel intraperitoneally 3 times per week", "protocol": "FIG. 11 is a line graph indicating mouse weight in paclitaxel-treated and control groups. Tumor-bearing nude mice were treated i.p. with 15 mg/kg paclitaxel every other day. Animals were weighed before each injection on a digital scale. Each curve represents the mean weight±s.e.m. of 10 mice per day of treatment.\nApproximately 4×10^6 human A549 NSCLC cells were resuspended in 50% Matrigel (BD Biosciences, Bedford, Mass.) and injected subcutaneously into the hind flanks of 8-wk old male athymic (nu/nu) nude mice (Taconic Farms, Inc., Hudson, N.Y.). When the average tumor volume reached ˜150 mm^3, mice (N=10 per group) were randomly assigned to the treatment or control group (Day 0). Mice were treated with vehicle (control) or 15 mg/kg paclitaxel (Bristol-Myers Squibb Co, Princeton, N.J.) intraperitoneally 3 times per week (on Mondays, Wednesdays, and Fridays). […] Tumor size was determined by digital caliper measurements (length and width in mm), and tumor volume (mm^3) was estimated using the formula (length×width^2)/2. Effects on tumor growth rate were assessed per mouse by determining the tumor volume on the day of treatment relative to the tumor volume on Day 0. Animals were sacrificed once morbidity became evident or their tumor size exceeded 1000 mm^3. […]"}}}
{"smiles": "CC(=O)O[C@H]1C(=O)[C@@]2(C)[C@H]([C@H](OC(=O)c3ccccc3)[C@]3(O)C[C@H](OC(=O)[C@H](O)[C@@H](NC(=O)c4ccccc4)c4ccccc4)C(C)=C1C3(C)C)[C@]1(OC(C)=O)CO[C@@H]1C[C@@H]2O", "note": "[paclitaxel]", "values": [{"measurement": "generation of paclitaxel-refractory tumors", "setting": "A549 xenografts; 10 mg/kg paclitaxel i.p.", "value": "did not generate any paclitaxel-refractory tumors"}, {"measurement": "generation of paclitaxel-refractory tumors", "setting": "A549 xenografts; 12.5 mg/kg paclitaxel i.p.", "value": "did not generate any paclitaxel-refractory tumors"}, {"measurement": "mice with prolonged response", "setting": "A549 xenografts; 15 mg/kg paclitaxel intraperitoneally", "value": "7 out of 10"}, {"measurement": "mice that became paclitaxel-refractory", "setting": "A549 xenografts; 15 mg/kg paclitaxel intraperitoneally, continued treatment", "value": "3 out of 10"}, {"measurement": "tumor growth after paclitaxel treatment", "setting": "T28.2 xenografts; 15 mg/kg paclitaxel i.p.", "value": "shrank substantially"}, {"measurement": "reduction of relative tumor burden at the end of the experiment", "setting": "T28.2 xenografts; 15 mg/kg paclitaxel i.p. vs vehicle, P=0.003", "value": 4.5, "unit": "fold"}, {"measurement": "tumor growth after paclitaxel treatment", "setting": "T20.2 xenografts; 15 mg/kg paclitaxel i.p.", "value": "only a slight delay in tumor growth"}, {"measurement": "reduction of relative tumor burden at the end of the experiment", "setting": "T20.2 xenografts; 15 mg/kg paclitaxel i.p. vs vehicle", "value": 1.4, "unit": "fold"}, {"measurement": "reduction of relative tumor burden at the end of the experiment", "setting": "A549 control cells", "value": 5, "unit": "fold"}, {"measurement": "in vivo growth under paclitaxel exposure", "setting": "[1]", "value": "not reduced"}, {"measurement": "mouse morbidity as measured by mouse weight", "setting": "[2]", "value": "minimal effects on mouse morbidity"}]}
